A word on the EC50: it is the concentration giving half of the maximal effect. Low values mean greater potency, high ones weaker potency.

This passage reports EC50 results from patent US12440496B2, “Natriuretic peptide receptor a agonists useful for the treatment of cardiometabolic diseases, kidney disease and diabetes” (Merck Sharp & Dohme LLC, priority 2019, dated 2025).

Structures can show the parent of a compound that is named as a salt.

The target in the experiment is T1, hNPRA (Homo sapiens, UniProt P16066).
T1 construct: expressed in transfected cells
T1 sequence (P16066 33-1061): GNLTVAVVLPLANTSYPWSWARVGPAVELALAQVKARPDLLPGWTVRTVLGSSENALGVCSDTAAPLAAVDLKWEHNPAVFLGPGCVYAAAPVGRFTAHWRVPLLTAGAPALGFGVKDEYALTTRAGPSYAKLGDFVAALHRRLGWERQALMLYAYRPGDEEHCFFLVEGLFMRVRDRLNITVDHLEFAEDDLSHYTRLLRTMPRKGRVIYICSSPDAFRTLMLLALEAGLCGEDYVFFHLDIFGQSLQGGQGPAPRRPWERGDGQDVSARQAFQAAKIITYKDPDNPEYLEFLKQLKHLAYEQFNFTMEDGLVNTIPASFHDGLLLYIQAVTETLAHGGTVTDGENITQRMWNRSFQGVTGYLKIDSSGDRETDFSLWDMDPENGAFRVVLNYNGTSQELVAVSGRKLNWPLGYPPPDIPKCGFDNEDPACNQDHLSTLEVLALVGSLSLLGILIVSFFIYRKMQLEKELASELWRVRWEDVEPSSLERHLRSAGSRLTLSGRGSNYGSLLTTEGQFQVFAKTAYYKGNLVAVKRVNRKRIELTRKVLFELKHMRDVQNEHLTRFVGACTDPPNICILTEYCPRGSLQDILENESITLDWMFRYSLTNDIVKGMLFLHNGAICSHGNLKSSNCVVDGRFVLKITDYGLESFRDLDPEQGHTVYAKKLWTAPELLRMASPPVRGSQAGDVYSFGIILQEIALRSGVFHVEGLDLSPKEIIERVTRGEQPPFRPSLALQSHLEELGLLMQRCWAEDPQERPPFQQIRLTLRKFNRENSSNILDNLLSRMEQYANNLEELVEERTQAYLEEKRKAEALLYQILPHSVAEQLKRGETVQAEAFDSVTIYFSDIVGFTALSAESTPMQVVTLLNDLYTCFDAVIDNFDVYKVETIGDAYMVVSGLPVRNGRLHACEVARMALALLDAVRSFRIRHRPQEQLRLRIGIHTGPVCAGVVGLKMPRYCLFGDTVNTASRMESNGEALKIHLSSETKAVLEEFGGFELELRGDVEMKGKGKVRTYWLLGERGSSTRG
Put plainly: NPRA Functional Cell Assay (cGMP HTRF, NPRA HEK JumpIn stable cells). The class given is cell-based. The note with it: cGMP production, 1 hour at 37° C., 10-point dose response. An excerpt:
NPRA Functional Cell Assay
Assay Buffer components HEPES and Opti-MEM® I Reduced-Serum with Glutamine (no phenol red) were from Gibco/Invitrogen (Thermo Fisher Scientific, Waltham, MA USA). 3-Isobutyl-1-methylxanthine (IBMX) and 4-(3-Butoxy-4-methoxybenzyl) imidazolidin-2-one (RO20) were obtained from Sigma-Aldrich (St. Louis, MO, USA). DPBS (Dulbecco's phosphate-buffered saline) without Ca2+ and Mg2+ was purchased from GE Healthcare Bio-Sciences (Pittsburgh, PA, USA). 384 well white Optiplates were from Perkin Elmer (Atlantic Highlands, NJ, USA). Human ANP (Atrial Natriuretic Peptide) (1-28) was purchased from Sigma-Aldrich (Catalog #A1663) and rat ANP (1-28) from Bachem (Torrance, CA, USA) (Catalog #H2100). Human-BNP (Human-Brain Natriuretic Peptide) (1-32 AA) was purchased from American Peptide Company (Sunnyvale, CA, USA) (product No. 14-1-90). cGMP kits were purchased from Cisbio. The assay ready frozen (ARF) Human/rat/dog NPRA HEK JumpIn Stable frozen cells (low passage number 5-11) were prepared in-house.
Test compounds were titrated in DMSO in a 10-point dose response in a separate step followed by a 100-fold dilution into the reaction. Positive response for each assay was determined using 10 nM rat-ANP peptide (rat cells) or 50 nM h-ANP peptide (human and dog cells).
Cells were thawed, washed with DPBS and resuspended in assay buffer (Opti-MEM+Glutamine, phenol red free media, 10 mM HEPES, 100 uM IBMX and 100 uM RO20) that was warmed to 37° C. Cells were then transferred to microplates via a Microplate Combi dispenser at a density of 1500, 400 and 1200 cells/well for human, rat and dog cells respectively, followed by acoustic transfer (Echo) of compound.
Compounds and cells were incubated at 37° C. with 5% CO2 for 1 hour, after which the cells were lysed and cGMP was captured using a CisBio cGMP HTRF assay kit. The TRF signal was measured with an Envision plate reader (emission set to 615 and 665 nm) after 1 hour incubation at ambient temperature. The TRF signal was converted to [cGMP] through the use of a cGMP calibration curve on each microplate. EC50's were generated from the resulting dose response curves by use of a 4 parameter logistic algorithm.
Assay Buffer components HEPES and Opti-MEM® I Reduced-Serum with Glutamine (no phenol red) were from Gibco/Invitrogen. 3-Isobutyl-1-methylxanthine (IBMX) and 4-(3-Butoxy-4-methoxybenzyl) imidazolidin-2-one (RO20) were obtained from Sigma. DPBS (Dulbecco's phosphate-buffered saline) without Ca2+ and Mg2+ was purchased from GE Healthcare Bio-Sciences (Pittsburgh, PA, USA). 384 well white Optiplates were from Perkin Elmer (Atlantic Highlands, NJ, USA). Human ANP (1-28) was purchased from Sigma (A1663) and rat ANP (1-28) from Bachem (H2100). Human-BNP (1-32 AA) was purchased from American Peptide Company (Sunnyvale, CA, USA) (product No. 14-1-90). cGMP kits were purchased from Cisbio (Bedford, MA, USA). The assay ready frozen (ARF) Human/rat/dog NPRA HEK JumpIn Stable frozen cells (low passage number 5-11) were prepared in-house.
Compounds and cells were incubated at 37° C. with 5% CO2 for 1 hour, after which the cells were lysed and cGMP was captured using a CisBio cGMP HTRF assay kit. The TRF signal was measured with an Envision® plate reader (Perkin Elmer) (emission set to 615 and 665 nm) after 1 hour incubation at ambient temperature. The TRF signal was converted to [cGMP] through the use of a cGMP calibration curve on each microplate. EC50's were generated from the resulting dose response curves by use of a 4 parameter logistic algorithm.
hNPRA EC50 (nM) were determined for the compounds of Example 1 through Example 273 and are reported in the Experimental section of this application.
For orientation: TR-FRET usually uses a lanthanide donor and a delayed reading to cut background.
Take `CN(C)S(=O)(=O)Nc1cccc([C@@H](CCN2CCC(O)CC2)NC(=O)c2nc3cc4c(nc3s2)CC[C@H](C(C)(C)C)C4)c1` (mixture of isomers) [Example 216, (7S)-7-tert-butyl-N-[rac-(1R)-1-[3-(dimethylsulfamoylamino)phenyl]-3-(4-hydroxypiperidin-1-ium-1-yl)propyl]-5,6,7,8-tetrahydrothiazolo[5,4-b]quinoline-2-carboxamide; formate]: the EC50 is 1980 nM. For the molecule `CC(C)(C)[C@H]1CCc2nc3sc(C(=O)N[C@H](CCN4CCCCC4)c4ccc(-c5ccc(O)nc5)cc4)cc3cc2C1` (racemic) [Example 1, ammonium;5-[4-[rac-(1R)-3-(1-piperidyl)-1-[[rac-(6S)-6-tert-butyl-5,6,7,8-tetrahydrothieno[2,3-b]quinoline-2-carbonyl]amino]propyl]phenyl]yridine-2-olate], the EC50 worked out at 233 nM. Next, `CC(C)(C)[C@H]1CCc2nc3sc(C(=O)N[C@H](CCN4CCCCC4)c4ccc(-c5cnc(=O)[nH]c5)cc4)cc3cc2C1` (racemic) [Example 2, rac-(6S)-6-tert-butyl-N-[rac-(1R)-1-[4-(2-oxo-1H-pyrimidin-5-yl)phenyl]-3-(1-piperidyl)propyl]-5,6,7,8-tetrahydrothieno[2,3-b]quinoline-2-carboxamide]: 518 nM; `CC(C)(C)[C@H]1CCc2nc3sc(C(=O)N[C@H](CCN4CCCCC4)c4ccc(-c5ccoc5)cc4)cc3cc2C1` (racemic) [Example 3, rac-(6S)-6-tert-butyl-N-[rac-(1R)-1-[4-(3-furyl)phenyl]-3-(1-piperidyl)propyl]-5,6,7,8-tetrahydrothieno[2,3-b]quinoline-2-carboxamide]: 675 nM. On to `Cn1nccc1-c1ccc([C@@H](CCN2CCCCC2)NC(=O)c2cc3cc4c(nc3s2)CC[C@H](C(C)(C)C)C4)cc1` (racemic) [Example 4, rac-(6S)-6-tert-butyl-N-[rac-(1R)-1-[4-(2-methylpyrazol-3-yl)phenyl]-3-(1-piperidyl)propyl]-5,6,7,8-tetrahydrothieno[2,3-b]quinoline-2-carboxamide], for which the midpoint of the response, the EC50, lay at 753 nM.

`CC(C)(C)[C@H]1CCc2nc3sc(C(=O)N[C@H](CCN4CCCCC4)c4ccc(-c5cn[nH]c5)cc4)cc3cc2C1` (racemic) [Example 5, rac-(6S)-6-tert-butyl-N-[rac-(1R)-3-(1-piperidy])-1-[4-(1H-pyrazol-4-yl)phenyl]propyl]-5,6,7,8-tetrahydrothieno[2,3-b]quinoline-2-carboxamide] showed an EC50 of 777 nM. The EC50 values of the last two molecules are within 1.5-fold of each other. Next, `CC(C)(C)[C@H]1CCc2nc3sc(C(=O)N[C@H](CCN4CCCCC4)c4ccc(-c5csc(C(=O)O)c5)cc4)cc3cc2C1` (racemic) [Example 6, ammonium;4-[4-[rac-(1R)-3-(1-piperidyl)-1-[rac-(6S)-6-tert-butyl-5,6,7,8-tetrahydrothieno[2,3-b]quinoline-2-carbonyl]amino]propyl] phenyl]thiophene-2-carboxylate]: 877 nM. On to `CC(C)(C)[C@H]1CCc2nc3sc(C(=O)N[C@H](CCN4CCCCC4)c4ccc(-c5cncnc5)cc4)cc3cc2C1` (racemic) [Example 7, rac-(6S)-6-tert-butyl-N-[rac-(1R)-3-(1-piperidyl)-1-(4-pyrimidin-5-ylphenyl)propyl]-5,6,7,8-tetrahydrothieno[2,3-b]quinoline-2-carboxamide], for which the EC50 is 2000 nM. Next, `CC(C)(C)[C@H]1CCc2nc3sc(C(=O)N[C@H](CCN4CCC(O)CC4)c4cccc(NS(C)(=O)=O)c4)cc3cc2C1` (racemic) [Example 8, ammonium; methylsulfonyl-[3-[rac-(1R)-3-(4-hydroxy-1-piperidyl)-1-[rac-(6S)-6-tert-butyl-5,6,7,8-tetrahydrothieno[2,3-b]quinoline-2-carbonyl]amino]propyl]phenyl] azanide]: 453 nM. Next, `CN(C)CC[C@@H](NC(=O)c1cc2cc3c(nc2s1)CC[C@H](C(C)(C)C)C3)c1cccc(NS(C)(=O)=O)c1` (racemic) [Example 9, ammonium; methylsulfonyl-[3-[rac-(1R)-3-(dimethylamino)-1-[rac-(6S)-6-tert-butyl-5,6,7,8-tetrahydrothieno[2,3-b]quinoline-2-carbonyl]amino]propyl]phenyl] azanide]: 708 nM; `CC(C)(C)[C@H]1CCc2nc3sc(C(=O)N[C@H](CCNC4CCOCC4)c4cccc(NS(C)(=O)=O)c4)cc3cc2C1` (racemic) [Example 10, ammonium; methylsulfonyl-[3-[rac-(1R)-1-[[rac-(6S)-6-tert-butyl-5,6,7,8-tetrahydrothieno[2,3-b]quinoline-2-carbonyl]amino]-3-(tetrahydro-pyran-4-ylamino)propyl]phenyl]azanide]: 710 nM. As for `CC(C)(C)[C@H]1CCc2nc3sc(C(=O)N[C@H](CCN4CCCCC4)c4cccc(NS(C)(=O)=O)c4)cc3cc2C1` (racemic) [Example 11, ammonium; methylsulfonyl-[3-[rac-(1R)-3-(1-piperidyl)-1-[rac-(6S)-6-tert-butyl-5,6,7,8-tetrahydrothieno[2,3-b]quinoline-2-carbonyl]amino]propyl]phenyl] azanide], the figure is 718 nM; as for `CC(C)(C)[C@H]1CCc2nc3sc(C(=O)N[C@H](CCN4CCCC(O)C4)c4cccc(NS(C)(=O)=O)c4)cc3cc2C1` (mixture of isomers) [Example 12, ammonium; methylsulfonyl-[3-[rac-(1R)-3-(3-hydroxy-1-piperidyl)-1-[[rac-(6S)-6-tert-butyl-5,6,7,8-tetrahydrothieno[2,3-b]quinoline-2-carbonyl]amino]propyl]phenyl] azanide], 790 nM. As to `CC(C)(C)[C@H]1CCc2nc3sc(C(=O)N[C@H](CCN4CCCC5(CC5)C4)c4cccc(NS(C)(=O)=O)c4)cc3cc2C1` (racemic) [Example 13, ammonium; methylsulfonyl-[3-[rac-(1R)-3-(5-azaspiro[2.5]octan-5-yl)-1-[[rac-(6S)-6-tert-butyl-5,6,7,8-tetrahydrothieno[2,3-b]quinoline-2-carbonyl]amino]propyl]phenyl] azanide], the midpoint of the response, the EC50, lay at 809 nM.
